*1 amine or outer side, *2 acyl side, *3 side chain or, on linkers, in order; H or OH if unused. Where a SMILES comes first, the peptide text is derived from it. Side-chain parts run from the residue outwards. [ ]: non-standard residue; d: D form. The star is where a group is joined. C20 diacid = O=C(O)CCCCCCCCCCCCCCCCCCC(=O)*; γGlu = O=C(O)[C@H](CCC(=O)[*:2])N[*:1]; εLys = N[C@@H](CCCCN[*:1])C(=O)[*:2]; Aib = CC(C)(N)C(=O)O
Columns and labels:
Experiment in all cases: Receptor activation: cAMP production by CRE-luciferase reporter in stably transfected BHK cells
Assay type in all cases: cell-based
Conditions in all cases: compared to the native ligand for the receptor
hGLP-1 Receptor = target: T1, hGLP-1 Receptor (Homo sapiens, UniProt P43220)
T1 construct: expressed in transfected cells; host or cells: baby hamster kidney (BHK) cells, stably transfected, with CRE-firefly luciferase reporter
Description: (§1) Cyclic AMP (cAMP) production was assessed as a proxy for receptor activation using stably transfected baby hamster kidney (BHK) cell lines expressing the DNA for one individual receptor (GLP-1R, GIPR, GcgR; human- or mouse-specific sequence) and the DNA for the firefly luciferase reporter gene linked to the cAMP response element (CRE). The cells were kept in continuous culture at 37 °C and 5% CO2 in Dulbecco's Modified Eagle Medium (DMEM) supplemented with 10% heat-inactivated fetal bovine serum (HI-FBS), 300 μg/mL hygromycin, and 500 μg/mL G418; for cell lines expressing GIPR, the G418 concentration was lowered to 400 μg/mL. Cells were plated in a 96-well poly-D-lysine-coated plate at 5,000 cells per well in growth media and incubated overnight at 37 °C with 5% CO2. After the overnight incubation, the media was removed, the plate was washed once in Dulbecco's phosphase-buffered saline (DPBS), and 50 μL of assay buffer (DMEM without phenol red, 10 mM HEPES, 1x Glutamax, 1% ovalbumin, 0.1% Pluronic F-68) was added to each well. […] Aliquots of the dilution curves were added to the cell plate in a volume of 50 μL per well resulting in final assay concentrations ranging from 1 × 10^−14 to 1 × 10^−7 M. The assay plate was incubated for 3 h at 37 °C and 5% CO2. After the incubation, the assay plate was washed once with DPBS. A 100 μL aliquot of DPBS was added to each well followed by 100 μL of steadylite plus reagent (PerkinElmer). The assay plate was covered to protect reagent from light, shaken at 250 rpm at room temperature for 30 min, and read in a microtiter plate reader. EC50 values were calculated using Prism software (GraphPad) with the nonlinear regression log(agonist) vs. response. A minimum of two replicates were measured for each sample.

hGIP Receptor = target: T2, hGIP Receptor (Homo sapiens, UniProt P48546)
T2 construct: expressed in transfected cells; host or cells: baby hamster kidney (BHK) cells, stably transfected, with CRE-firefly luciferase reporter
T2 sequence (P48546 22-466): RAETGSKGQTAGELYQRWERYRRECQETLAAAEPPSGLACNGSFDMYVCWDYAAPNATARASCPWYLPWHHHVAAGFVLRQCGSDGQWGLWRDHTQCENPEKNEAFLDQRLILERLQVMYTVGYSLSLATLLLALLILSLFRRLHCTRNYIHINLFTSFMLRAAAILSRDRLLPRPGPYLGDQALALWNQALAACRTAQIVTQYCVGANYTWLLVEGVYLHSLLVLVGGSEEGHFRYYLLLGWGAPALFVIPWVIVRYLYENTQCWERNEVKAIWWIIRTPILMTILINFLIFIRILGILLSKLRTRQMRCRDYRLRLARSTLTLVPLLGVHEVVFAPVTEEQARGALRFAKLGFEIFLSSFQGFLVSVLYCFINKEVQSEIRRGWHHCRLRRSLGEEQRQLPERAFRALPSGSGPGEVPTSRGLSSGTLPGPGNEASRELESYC
Description: as §1

hGcg Receptor = target: T3, hGcg Receptor (Homo sapiens, UniProt P47871)
T3 construct: expressed in transfected cells; host or cells: baby hamster kidney (BHK) cells, stably transfected, with CRE-firefly luciferase reporter
Description: as §1

T3 sequence (P47871 26-477): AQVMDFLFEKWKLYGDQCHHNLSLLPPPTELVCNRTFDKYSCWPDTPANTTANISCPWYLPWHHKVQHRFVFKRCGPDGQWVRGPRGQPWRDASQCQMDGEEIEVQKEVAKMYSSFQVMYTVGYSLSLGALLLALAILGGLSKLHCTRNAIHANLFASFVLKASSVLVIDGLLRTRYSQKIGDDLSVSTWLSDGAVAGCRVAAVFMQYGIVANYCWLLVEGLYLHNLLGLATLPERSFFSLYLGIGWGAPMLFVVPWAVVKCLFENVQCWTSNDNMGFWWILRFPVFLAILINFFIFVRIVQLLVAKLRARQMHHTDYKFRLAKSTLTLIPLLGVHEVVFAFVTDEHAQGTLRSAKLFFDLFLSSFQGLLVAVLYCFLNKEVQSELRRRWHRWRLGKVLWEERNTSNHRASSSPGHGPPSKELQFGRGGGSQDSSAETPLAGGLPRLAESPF
T1 sequence (P43220 24-463): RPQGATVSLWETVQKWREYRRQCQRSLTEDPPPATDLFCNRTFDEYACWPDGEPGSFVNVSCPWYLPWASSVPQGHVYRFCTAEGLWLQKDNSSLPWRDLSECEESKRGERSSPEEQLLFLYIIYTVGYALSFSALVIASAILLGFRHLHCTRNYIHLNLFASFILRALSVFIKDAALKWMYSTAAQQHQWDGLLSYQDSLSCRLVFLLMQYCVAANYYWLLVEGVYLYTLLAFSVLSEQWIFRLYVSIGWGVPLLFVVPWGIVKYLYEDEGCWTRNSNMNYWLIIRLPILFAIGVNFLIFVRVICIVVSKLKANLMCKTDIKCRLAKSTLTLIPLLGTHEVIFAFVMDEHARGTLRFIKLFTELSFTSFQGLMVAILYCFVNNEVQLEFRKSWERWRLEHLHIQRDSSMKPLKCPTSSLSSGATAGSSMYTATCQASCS

Row | SMILES | hGLP-1 Receptor Relative Potency % (hGLP-1 Receptor) | hGIP Receptor Relative Potency % (hGIP Receptor) | hGcg Receptor Relative Potency % (hGcg Receptor)
1 | CC[C@H](C)[C@H](NC(=O)[C@H](CO)NC(=O)[C@H](Cc1ccc(O)cc1)NC(=O)[C@H](CC(=O)O)NC(=O)[C@H](CO)NC(=O)[C@@H](NC(=O)[C@H](Cc1ccccc1)NC(=O)[C@@H](NC(=O)CNC(=O)[C@H](CCC(N)=O)NC(=O)C(C)(C)NC(=O)[C@@H](N)Cc1c[nH]cn1)[C@@H](C)O)[C@@H](C)O)C(=O)N[C@@H](Cc1ccc(O)cc1)C(=O)N[C@@H](CC(C)C)C(=O)N[C@@H](CCC(=O)O)C(=O)N[C@@H](CCCCNC(=O)[C@@H](N)CCCCNC(=O)[C@@H](N)CCCCNC(=O)CC[C@H](NC(=O)CCCCCCCCCCCCCCCCCCC(=O)O)C(=O)O)C(=O)N[C@@H](CCC(N)=O)C(=O)N[C@@H](C)C(=O)N[C@@H](C)C(=O)NC(C)(C)C(=O)N[C@@H](CCC(=O)O)C(=O)N[C@@H](Cc1ccccc1)C(=O)N[C@H](C(=O)N[C@@H](CCC(N)=O)C(=O)N[C@@H](Cc1c[nH]c2ccccc12)C(=O)N[C@@H](CC(C)C)C(=O)N[C@@H](CC(C)C)C(=O)N[C@@H](CCC(=O)O)C(=O)NCC(=O)NCC(=O)N1CCC[C@H]1C(=O)N[C@@H](CO)C(=O)N[C@@H](CO)C(=O)NCC(=O)N[C@@H](C)C(=O)N1CCC[C@H]1C(=O)N1CCC[C@H]1C(=O)N1CCC[C@H]1C(=O)N[C@@H](CO)C(N)=O)C(C)C [Compound 12] (H-H[Aib]QGTFTSDYSIYLEK([εLys-εLys-γGlu-C20 diacid])QAA[Aib]EFVQWLLEGGPSSGAPPPS-NH2) | 410% | 19% | 3%
2 | CC[C@H](C)[C@H](NC(=O)[C@H](CO)NC(=O)[C@H](Cc1ccc(O)cc1)NC(=O)[C@H](CC(=O)O)NC(=O)[C@H](CO)NC(=O)[C@@H](NC(=O)[C@H](Cc1ccccc1)NC(=O)[C@@H](NC(=O)CNC(=O)[C@H](Cc1c[nH]cn1)NC(=O)C(C)(C)NC(=O)[C@@H](N)Cc1c[nH]cn1)[C@@H](C)O)[C@@H](C)O)C(=O)N[C@@H](Cc1ccc(O)cc1)C(=O)N[C@@H](CC(C)C)C(=O)N[C@@H](CCC(=O)O)C(=O)N[C@@H](CCCCNC(=O)[C@@H](N)CCCCNC(=O)[C@@H](N)CCCCNC(=O)CC[C@H](NC(=O)CCCCCCCCCCCCCCCCCCC(=O)O)C(=O)O)C(=O)N[C@@H](CCC(N)=O)C(=O)N[C@@H](C)C(=O)N[C@@H](C)C(=O)NC(C)(C)C(=O)N[C@@H](CCC(=O)O)C(=O)N[C@@H](Cc1ccccc1)C(=O)N[C@H](C(=O)N[C@@H](CCC(N)=O)C(=O)N[C@@H](Cc1c[nH]c2ccccc12)C(=O)N[C@@H](CC(C)C)C(=O)N[C@@H](CC(C)C)C(=O)N[C@@H](CCC(=O)O)C(=O)NCC(=O)NCC(=O)N1CCC[C@H]1C(=O)N[C@@H](CO)C(=O)N[C@@H](CO)C(=O)NCC(=O)N[C@@H](C)C(=O)N1CCC[C@H]1C(=O)N1CCC[C@H]1C(=O)N1CCC[C@H]1C(=O)N[C@@H](CO)C(N)=O)C(C)C [Compound 13] (H-H[Aib]HGTFTSDYSIYLEK([εLys-εLys-γGlu-C20 diacid])QAA[Aib]EFVQWLLEGGPSSGAPPPS-NH2) | 340% | 146% | 19%
3 | CC[C@H](C)[C@H](NC(=O)[C@H](CO)NC(=O)[C@H](Cc1ccc(O)cc1)NC(=O)[C@H](CC(=O)O)NC(=O)[C@H](CO)NC(=O)[C@@H](NC(=O)[C@H](Cc1ccccc1)NC(=O)[C@@H](NC(=O)CNC(=O)[C@H](Cc1c[nH]cn1)NC(=O)C(C)(C)NC(=O)[C@@H](N)Cc1c[nH]cn1)[C@@H](C)O)[C@@H](C)O)C(=O)N[C@@H](Cc1ccc(O)cc1)C(=O)N[C@@H](CC(C)C)C(=O)N[C@@H](CCC(=O)O)C(=O)N[C@@H](CCCCNC(=O)[C@@H](N)CCCCNC(=O)[C@@H](N)CCCCNC(=O)CC[C@H](NC(=O)CCCCCCCCCCCCCCCCCCC(=O)O)C(=O)O)C(=O)N[C@@H](CCCCN)C(=O)N[C@@H](C)C(=O)N[C@@H](C)C(=O)NC(C)(C)C(=O)N[C@@H](CCC(=O)O)C(=O)N[C@@H](Cc1ccccc1)C(=O)N[C@H](C(=O)N[C@@H](CCC(N)=O)C(=O)N[C@@H](Cc1c[nH]c2ccccc12)C(=O)N[C@@H](CC(C)C)C(=O)N[C@@H](CC(C)C)C(=O)N[C@@H](CCC(=O)O)C(=O)NCC(=O)NCC(=O)N1CCC[C@H]1C(=O)N[C@@H](CO)C(=O)N[C@@H](CO)C(=O)NCC(=O)N[C@@H](C)C(=O)N1CCC[C@H]1C(=O)N1CCC[C@H]1C(=O)N1CCC[C@H]1C(=O)N[C@@H](CO)C(N)=O)C(C)C [Compound 14] (H-H[Aib]HGTFTSDYSIYLEK([εLys-εLys-γGlu-C20 diacid])KAA[Aib]EFVQWLLEGGPSSGAPPPS-NH2) | 211% | 142% | 69%
4 | CC[C@H](C)[C@H](NC(=O)[C@H](CO)NC(=O)[C@H](Cc1ccc(O)cc1)NC(=O)[C@H](CC(=O)O)NC(=O)[C@H](CO)NC(=O)[C@@H](NC(=O)[C@H](Cc1ccccc1)NC(=O)[C@@H](NC(=O)CNC(=O)[C@H](Cc1c[nH]cn1)NC(=O)C(C)(C)NC(=O)[C@@H](N)Cc1c[nH]cn1)[C@@H](C)O)[C@@H](C)O)C(=O)N[C@@H](Cc1ccc(O)cc1)C(=O)N[C@@H](CC(C)C)C(=O)N[C@@H](CCC(=O)O)C(=O)N[C@@H](CCCCNC(=O)[C@@H](N)CCCCNC(=O)[C@@H](N)CCCCNC(=O)CC[C@H](NC(=O)CCCCCCCCCCCCCCCCCCC(=O)O)C(=O)O)C(=O)N[C@@H](CCC(N)=O)C(=O)N[C@@H](Cc1ccc(O)cc1)C(=O)N[C@@H](C)C(=O)NC(C)(C)C(=O)N[C@@H](CCC(=O)O)C(=O)N[C@@H](Cc1ccccc1)C(=O)N[C@H](C(=O)N[C@@H](CCC(N)=O)C(=O)N[C@@H](Cc1c[nH]c2ccccc12)C(=O)N[C@@H](CC(C)C)C(=O)N[C@@H](CC(C)C)C(=O)N[C@@H](CCC(=O)O)C(=O)NCC(=O)NCC(=O)N1CCC[C@H]1C(=O)N[C@@H](CO)C(=O)N[C@@H](CO)C(=O)NCC(=O)N[C@@H](C)C(=O)N1CCC[C@H]1C(=O)N1CCC[C@H]1C(=O)N1CCC[C@H]1C(=O)N[C@@H](CO)C(N)=O)C(C)C [Compound 15] (H-H[Aib]HGTFTSDYSIYLEK([εLys-εLys-γGlu-C20 diacid])QYA[Aib]EFVQWLLEGGPSSGAPPPS-NH2) | 101% | 135% | 72%
